Like-named read-outs stand apart in the source and are kept apart here.
Key:
NOMO-1 AML cells = assay: AML cell killing with NK cells, Annexin V viable cell count at 72 h (IC50 and Chou-Talalay synergy); assay type: cell-based; settings: Homo sapiens
Protocol: (§1) Initially, cells from each AML cell line were treated with decitabine, cusatuzumab or venetoclax alone to determine the IC50 for each treatment. 10^5 AML cells were treated with a concentration range of cusatuzumab (0.1, 1.0 and 10 μg/ml), venetoclax (0.5 and 200 nM), decitabine (0.01-1 μM) or vehicle in the presence of CFSE-labelled NK cells derived from healthy individuals (ratio 1:1). The assay was performed in triplicate.
(§2) To determine synergy, a constant combination ratio experiment was carried out at equipotency ratio (IC501/IC502, or IC501/IC502/IC503) so that each drug contributed equally to cell killing. Combination drug dose responses were assessed in two technical replicates for every dose/dose combination as previously described (Riether et al., Sci Transl Med (2015) 7(298); 298ra119.
(§3) NOMO-1, MOLM-13, NB-4 or MV4-11 AML cell lines were treated with vehicle, decitabine, cusatuzumab or venetoclax alone, a double combination of venetoclax and decitabine, decitabine and cusatuzumab, or venetoclax and cusatuzumab, or a triple combination of decitabine, cusatuzumab and venetoclax. All combinations were tested at three high and three low concentrations (above and below the identified IC50s) and in a constant ratio. Cells were cultured in the presence of CFSE-labeled NK cells (ratio 1:1). Viable AML cell numbers were assessed 72 hours later by Annexin V staining, and the effect of drug treatment was calculated as the ratio of surviving cells to vehicle-treated cells.
(§4) The Combination Index (CI) was calculated and plotted against Fraction affected (Fa) using CompuSyn software. The resultant plot of the combination index (CI) against fraction affected (Fa) for all combinations is shown in FIG. 1, with the individual combinations shown in FIGS. 2A-2D.
(§5) Fa values of 0, 0.5, and 1 correspond to 0, 50, and 100% killed cells. A CI of <1, 1, >1 represents synergism, additivity, and antagonism, respectively. IC50s indicates Fa values reached for the combination of respective IC50 concentrations. The principles and advantages of the Fa-CI plot method of assessing synergism are provided in, for example, Chou T C, Cancer Research (2010) 70(2); 440-6 and Zhao et al. Front Biosci (Elite Ed). (2010) 2; 241-249 (each of which is incorporated herein by reference in its entirety).

MV4-11 AML cells = assay: as above; assay type: cell-based; settings: Homo sapiens
Protocol: as §1, §2, §3, §4, §5

NB4 AML cells = assay: as above; assay type: cell-based
Protocol: as §1, §2, §3, §4, §5

MOLM-13 AML cells = assay: as above; assay type: cell-based; settings: Homo sapiens
Protocol: as §1, §2, §3, §4, §5

[1] = cited from earlier work
CD70 expression = assay: CD70 mRNA and protein expression in AML cells; assay type: cell-based; settings: AML cells (MOLM-13, NOMO-1) in the presence of venetoclax
Protocol: FIG. 9: CD70 mRNA expression (as percentage of housekeeping gene) following treatment with vehicle (Veh) or venetoclax (Ven) for 24 or 48 hrs.
FIG. 10: CD70 protein and mRNA expression by MOLM-13 and NOMO-1 cells in the presence (gray bars) and absence (black bars) of venetoclax. Significance was determined using a Student's t-test. MFI=mean fluorescence intensity. *** P<0.001.
The effect of venetoclax on expression of CD70 at both the mRNA and protein level was assessed.

CD70 = target: T1, CD70 (Homo sapiens, UniProt P32970); settings: Silence et al. (2014); cited from earlier work
T1 sequence (P32970 1-193): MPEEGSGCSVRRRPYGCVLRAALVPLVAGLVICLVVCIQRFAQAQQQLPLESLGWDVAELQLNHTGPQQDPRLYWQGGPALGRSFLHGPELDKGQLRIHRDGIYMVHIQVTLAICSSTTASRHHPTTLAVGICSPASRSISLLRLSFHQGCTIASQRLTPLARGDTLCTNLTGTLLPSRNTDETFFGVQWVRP

CD27 signalling = settings: cited from earlier work
[2] = tested on: CD70-expressing tumour cells; settings: Silence et al. (2014); cited from earlier work

**Q.** Which IC50 (NOMO-1 AML cells; NOMO-1) does the source give for Nc1ncn([C@H]2C[C@H](O)[C@@H](CO)O2)c(=O)n1 [decitabine] here?
**A.** The IC50 was 0.001 nM.

**Q.** What about the IC50 (MV4-11 AML cells; MV4-11) of the same molecule?
**A.** Its IC50 is 2.36 nM.

**Q.** And the IC50 (NB4 AML cells)?
**A.** The IC50 was 4.8 nM.

**Q.** And the IC50 (MOLM-13 AML cells; MOLM-13)?
**A.** Its IC50 is 0.01 nM.

**Q.** For CC1(C)CCC(CN2CCN(c3ccc(C(=O)NS(=O)(=O)c4ccc(NCC5CCOCC5)c([N+](=O)[O-])c4)c(Oc4cnc5[nH]ccc5c4)c3)CC2)=C(c2ccc(Cl)cc2)C1 [venetoclax, 4-(4-{[2-(4-chlorophenyl)-4,4dimethylcyclohex-1-en-1-yl]methyl}piperazin-1-yl)-N-({3-nitro-4-[(tetrahydro-2H-pyran-4ylmethyl)amino]phenyl}sulfonyl)-2-(1H-pyrrolo[2,3-b]pyridin-5-yloxy)benzamide], which IC50 (NOMO-1 AML cells; NOMO-1, monotherapy, NK cells ratio 1:1, read-out: IC50) is on record?
**A.** The IC50 was 3.4 nM.

**Q.** What about the IC50 (MV4-11 AML cells; MV4-11, monotherapy, NK cells ratio 1:1, read-out: IC50) of the same molecule?
**A.** The IC50 was 5 nM.

**Q.** And the IC50 (NB4 AML cells; NB4, monotherapy, NK cells ratio 1:1, read-out: IC50)?
**A.** The IC50 was 17.3 nM.

**Q.** What about the IC50 (MOLM-13 AML cells; MOLM-13, monotherapy, NK cells ratio 1:1, read-out: IC50) of the same molecule?
**A.** The IC50 was 0.42 nM.

**Q.** What about the Aqueous solubility [1] of the same molecule?
**A.** Its Aqueous solubility is “very low aqueous solubility”.

**Q.** And the “CD70 expression (mRNA and protein)” value (CD70 expression)?
**A.** Its value is “up-regulated”.

B1: cusatuzumab: IgG1 anti-CD70 antibody, ADCC-enhanced humanized monoclonal; VH SEQ ID NO: 4, VL SEQ ID NO: 8 (antibody, V domains shown)
VH: EVQLVESGGGLVQPGGSLRLSCAASGFTFSVYYMNWVRQAPGKGLEWVSDINNEGGTTYYADSVKGRFTISRDNSKNSLYLQMNSLRAEDTAVYYCARDAGYSNHVPIFDSWGQGTLVTVSS
VL: QAVVTQEPSLTVSPGGTVTLTCGLKSGSVTSDNFPTWYQQTPGQAPRLLIYNTNTRHSGVPDRFSGSILGNKAALTITGAQADDEAEYFCALFISNPSVEFGGGTQLTVLG
**Q.** What does the source list for B1?
**A.** Interaction of CD70 with CD27 (CD70): inhibit the interaction of CD70 with its receptor CD27; CD70-induced CD27 signalling (CD27 signalling): inhibit CD70-induced CD27 signalling; Lysis of CD70-expressing tumour cells via ADCC and CDC [2]: lyse CD70-expressing tumour cells

Source: patent US11712468B2, “CD70 combination therapy” (Argenx BV, priority 2018, dated 2023)
